“And” between values parts separate entries of the source, which are not always exact repeats. Equal entries are not always repeated. After the bases stand the sugars from the 5' end (letter, count) and the backbone: PS all phosphorothioate, else s phosphorothioate and o phosphodiester by linkage. Methylation of C is not given here. e = 2'-O-(2-methoxyethyl) (MOE); k = constrained ethyl (cEt); d = 2'-deoxy (DNA)
Target: IRF4
Conditions: ASO

Sequence | target mRNA inhibition (SK-MEL-28, 4 µM) | target mRNA inhibition (MM.1R, 1 µM) | other results
TGGAATCTTGGCAGGG (sugars k3 d10 k3, PS) | 40% |  | 
TGGAGAAACGAGCCAG (sugars k3 d10 k3, PS) | 38% |  | 
TGGCAACCATTTTCAC (sugars k4 d8 k4, PS) | 7% |  | 
TGGCACAATTCTCTGA (sugars k3 d10 k3, PS) | 13% |  | 
TGGCACAGACATACCT (sugars k3 d10 k3, PS) | 38% |  | 
TGGCAGGGAGCGGCCG (sugars k3 d10 k3, PS) | 11% |  | 
TGGCCCTTCTCTCACG (sugars k3 d10 k3, PS) | 11% |  | 
TGGCGAGTGGCGGGTA (sugars k3 d10 k3, PS) |  | -18% | 
TGGCTCATGGACATCT (sugars k3 d10 k3, PS) | 32% |  | 
TGGCTGATAATTAATC (sugars k3 d10 k3, PS) |  | -5% | 
TGGGAATCCTTAATTA (sugars k3 d10 k3, PS) | 12% |  | 
TGGGACATTGGTACGG (sugars k3 d10 k3, PS) | 69% |  | target mRNA inhibition (MM.1R, 0.074 µM): 4%; target mRNA inhibition (MM.1R, 0.222 µM): 2%; target mRNA inhibition (MM.1R, 0.666 µM): 13%; target mRNA inhibition (MM.1R, 2 µM): 34%
TGGGAGTAATAGTAAA (sugars k3 d10 k3, PS) | 16% |  | 
TGGGATTATATACTGG (sugars kdddddddddkekeke, PS) |  | 40% | 
TGGGATTATATACTGG (sugars kkdddddddddekeke, PS) |  | 63% | 
TGGGATTATATACTGG (sugars kkdddddddddkdkdk, PS) |  | 25% | 
TGGGATTATATACTGG (sugars kkdddddddddkekek, PS) |  | 42% | 
TGGGTACATGGCAGTG (sugars k3 d10 k3, PS) | 74% |  | 
TGGTAACAATACTGTA (sugars k3 d10 k3, PS) | 65% |  | 
TGGTAGAATGTGATAT (sugars k3 d10 k3, PS) | 43% |  | 
TGGTAGGTAGGCACCT (sugars k3 d10 k3, PS) | 35% |  | 
TGGTATTTTTCCGTTC (sugars k3 d10 k3, PS) | 69% | 39% | target mRNA inhibition (MM.1R, 0.0625 µM): 6%; target mRNA inhibition (MM.1R, 0.074 µM): 13%; target mRNA inhibition (MM.1R, 0.222 µM): 6%; target mRNA inhibition (MM.1R, 0.25 µM): 20%; target mRNA inhibition (MM.1R, 0.666 µM): 24%; target mRNA inhibition (MM.1R, 2 µM): 51%; target mRNA inhibition (MM.1R, 4 µM): 73%
TGGTGGGTCCTGGCAG (sugars k3 d10 k3, PS) | 23% |  | 
TGGTTGGCTGGTCTTT (sugars k3 d10 k3, PS) |  | 88% and 69% | target mRNA inhibition (MM.1R, 0.0625 µM): 6%; target mRNA inhibition (MM.1R, 0.25 µM): 40%; target mRNA inhibition (MM.1R, 4 µM): 89%
TGGTTGGCTGGTCTTT (sugars kddddddddddkekek, PS) |  | 9% | 
TGTAAATGAGTCGGTC (sugars k3 d10 k3, PS) | 69% |  | 

Sequence | target mRNA inhibition (SK-MEL-28, 4 µM) | target mRNA inhibition (MM.1R, 1 µM) | other results
TGTACAGGACAGGTAA (sugars k3 d10 k3, PS) |  | 8% | 
TGTAGGGCGACTAACT (sugars k3 d10 k3, PS) | 21% |  | 
TGTAGTATGAGAAACG (sugars e1 k2 d9 k2 e2, PS) |  | 6% | 
TGTAGTATGAGAAACG (sugars k3 d9 k3 e1, PS) |  | 33% | 
TGTAGTATGAGAAACG (sugars kkdddddddddkdkdk, PS) |  | -6% | 
TGTATACATCACTGCA (sugars k3 d10 k3, PS) | 63% |  | 
TGTATAGTTCTCAACC (sugars k3 d10 k3, PS) | 43% |  | 
TGTATTACTCTTAGGC (sugars k3 d10 k3, PS) |  | 65% and 41% | target mRNA inhibition (MM.1R, 0.0625 µM): 7%; target mRNA inhibition (MM.1R, 0.25 µM): 21%; target mRNA inhibition (MM.1R, 4 µM): 68%
TGTATTTATGCCCTCG (sugars k3 d10 k3, PS) | 44% |  | 
TGTCCAGCTGGCTCCG (sugars k3 d10 k3, PS) | 39% |  | 
TGTCGATGCCTTCTCG (sugars k3 d10 k3, PS) | 28% |  | 
TGTGAACCTGCTGGGC (sugars k3 d10 k3, PS) | 2% |  | 
TGTGACATAAAGGACC (sugars k3 d10 k3, PS) | 27% |  | 
TGTGATAGCTGAGCTG (sugars k2 d9 e3 k2, PS) |  | 12% | 
TGTGATAGCTGAGCTG (sugars k3 d10 k3, PS) |  | 47% | 
TGTGATAGCTGAGCTG (sugars kddddddddddkekek, PS) |  | -2% | 
TGTGCTTGCCAAGCCT (sugars k2 d9 e3 k2, PS) |  | 45% and 40% | 
TGTGCTTGCCAAGCCT (sugars k3 d10 k3, PS) |  | 38% and 49% | 
TGTGCTTGCCAAGCCT (sugars kkdddddddddekeke, PS) |  | 21% and 1% | 
TGTGGTTTCACATGAT (sugars k3 d10 k3, PS) |  | 21% | 
TGTGTCAAAGAGCTTG (sugars k3 d10 k3, PS) | 22% |  | 
TGTTACCGATGCTTCA (sugars kdddddddddkekeke, PS) |  | 10% and 13% | 
TGTTAGCTACAAAGAG (sugars k3 d10 k3, PS) | 47% |  | 
TGTTAGGTGACCCAAA (sugars k3 d10 k3, PS) |  | 2% | 
TGTTCAGAAACCCTCA (sugars k3 d10 k3, PS) |  | -15% | 
TGTTTTAAGAGGCGAC (sugars k3 d10 k3, PS) |  | 3% | 

Sequence | target mRNA inhibition (SK-MEL-28, 4 µM) | target mRNA inhibition (MM.1R, 1 µM) | other results
TTAAAATATCGCCCAT (sugars k3 d10 k3, PS) | 32% |  | 
TTAAACAGCACTCAGA (sugars k3 d10 k3, PS) | 33% |  | 
TTAAAGGGTAAGCACT (sugars k3 d10 k3, PS) |  | -18% | 
TTAAATAAGATCCCAC (sugars k3 d10 k3, PS) | 23% |  | 
TTAACCATTACTTAGA (sugars k3 d10 k3, PS) | 45% |  | 
TTAAGCTAAACTCCTA (sugars k3 d10 k3, PS) | 10% |  | 
TTACCATTTTCACAAG (sugars k3 d10 k3, PS) | 8% |  | 
TTACCGATGCTTCAAG (sugars k3 d10 k3, PS) |  | 16% and 19% | 
TTACTAATTCCATAGA (sugars k3 d10 k3, PS) |  | 3% | 
TTAGAAAGCCCTCACC (sugars k3 d10 k3, PS) | -16% |  | 
TTAGAGAGGAGAATTT (sugars k3 d10 k3, PS) | 35% |  | 
TTAGCAATTCCTGTTG (sugars k3 d10 k3, PS) | 20% |  | 
TTAGGATAATATACCC (sugars k3 d10 k3, PS) | 52% |  | 
TTAGGCACATCAATGT (sugars k3 d10 k3, PS) |  | 12% and 17% | 
TTATATACTGGTTGGT (sugars k2 d9 e3 k2, PS) |  | 40% | 
TTATATACTGGTTGGT (sugars kdddddddddkekeke, PS) |  | 20% | 
TTATGTTAGCCAATTC (sugars k2 d9 e3 k2, PS) |  | 14% and 9% | 
TTATGTTAGCCAATTC (sugars k3 d10 k3, PS) |  | 9% and 22% | 
TTCAACACACTGTCTG (sugars k3 d10 k3, PS) | -31% |  | 
TTCAACTTGTGACCCA (sugars k3 d10 k3, PS) | 49% |  | 
TTCAAGAGGAACTAGT (sugars k3 d10 k3, PS) | 6% |  | 
TTCAGTGCTCACTGCT (sugars k3 d10 k3, PS) | 69% |  | 
TTCATGTAAAGTCTGC (sugars kddddddddddkekek, PS) |  | 2% and -18% | 
TTCATGTAAAGTCTGC (sugars kkdddddddddkekek, PS) |  | 10% and 12% | 
TTCATTAGAAAGCCCT (sugars k3 d10 k3, PS) |  | -22% | 
TTCCAGCTTAGTCACC (sugars k3 d10 k3, PS) | 37% |  | 

Sequence | target mRNA inhibition (SK-MEL-28, 4 µM) | target mRNA inhibition (MM.1R, 1 µM) | other results
TTCCAGGTCATTTGAC (sugars k3 d10 k3, PS) | 66% |  | target mRNA inhibition (MM.1R, 0.074 µM): 2%; target mRNA inhibition (MM.1R, 0.222 µM): 3%; target mRNA inhibition (MM.1R, 0.666 µM): 9%; target mRNA inhibition (MM.1R, 2 µM): 27%
TTCCATTGGAGGAGGG (sugars k3 d10 k3, PS) | 28% |  | 
TTCTAGTCGCGCAAGT (sugars k3 d10 k3, PS) |  | -7% | 
TTGATGTGATAGCTGA (sugars kkdddddddddkdkdk, PS) |  | 36% | 
TTGCAAGCTATATTAA (sugars k3 d10 k3, PS) | 34% |  | 
TTGCATAGGCATCCTT (sugars k3 d10 k3, PS) | 47% |  | 
TTGCATCTATAAGATG (sugars k3 d10 k3, PS) | 31% |  | 
TTGCATGGCTAATGAA (sugars k3 d10 k3, PS) | 42% |  | 
TTGGCTCCTTTTTTGG (sugars k3 d10 k3, PS) | 13% |  | 
TTGGTTGGCTGGTCTT (sugars k2 d9 e3 k2, PS) |  | 50% | 
TTGGTTGGCTGGTCTT (sugars kddddddddddkekek, PS) |  | 34% | 
TTGGTTGGCTGGTCTT (sugars kkdddddddddkekek, PS) |  | 65% | 
TTGTACAGGACAGGTA (sugars k3 d10 k3, PS) | 28% |  | 
TTGTTCCACCCCTGGG (sugars k3 d10 k3, PS) | 47% |  | 
TTGTTTGCAAGCTATA (sugars k3 d10 k3, PS) |  | 36% | 
TTTAAGAGGCGACTGC (sugars k3 d10 k3, PS) |  | -100% | 
TTTAAGGCCCTGTCAA (sugars k3 d10 k3, PS) | -17% |  | 
TTTACACTGGATCTGA (sugars k3 d10 k3, PS) | 25% |  | 
TTTACCTGGTATTGCT (sugars k3 d10 k3, PS) | 38% |  | 
TTTATAACCGGTAGAG (sugars k3 d10 k3, PS) | 54% |  | 
TTTATGTTAGCCAATT (sugars kddddddddddkekek, PS) |  | 0% and -12% | 
TTTATGTTAGCCAATT (sugars kkdddddddddekeke, PS) |  | 12% and -13% | 
TTTCTAATGGTGCTCC (sugars k3 d10 k3, PS) |  | 4% | 
